In ChEMBL document CHEMBL1201862, “PubChem BioAssay data set” (2004):
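Test compounds were applied to cells in 96-well plates for 48 hours at 5 doses. GI50 is the concentration that inhibits growth by half.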 The source made the active and inactive calls. Rule as the data show it: active = GI50 up to about 1.1 µM and inactive = higher.

What was measured:
Assay in all cases: DTP human tumour cell line panel, 48 h
MCF7 = system: MCF7
OVCAR-8 = system: OVCAR-8
HOP-62 = system: HOP-62
SF-539 = system: SF-539
OVCAR-5 = system: OVCAR-5
A549 = system: A549
T47D = system: T47D
MOLT-4 = system: MOLT-4
HT-29 = system: HT-29
SK-MEL-28 = system: SK-MEL-28
OVCAR-3 = system: OVCAR-3
NCI-H522 = system: NCI-H522
RXF 393 = system: RXF 393
SK-MEL-5 = system: SK-MEL-5
SK-MEL-2 = system: SK-MEL-2
CAKI-1 = system: CAKI-1
786-0 = system: 786-0
HOP-92 = system: HOP-92
HCC 2998 = system: HCC 2998
SF-295 = system: SF-295
HCT-15 = system: HCT-15
EKVX = system: EKVX
MDA-N = system: MDA-N
HCT-116 = system: HCT-116
SK-OV-3 = system: SK-OV-3
OVCAR-4 = system: OVCAR-4
U-251 = system: U-251
SW-620 = system: SW-620
K562 = system: K562
BT-549 = system: BT-549
IGROV-1 = system: IGROV-1
A498 = system: A498
MDA-MB-435 = system: MDA-MB-435
COLO 205 = system: COLO 205
UACC-257 = system: UACC-257
UO-31 = system: UO-31
NCI/ADR-RES = system: NCI/ADR-RES
PC-3 = system: PC-3
DU-145 = system: DU-145
M14 = system: M14
HL-60 = system: HL-60
SF-268 = system: SF-268
NCI-H460 = system: NCI-H460
SNB-75 = system: SNB-75
NCI-H23 = system: NCI-H23
NCI-H226 = system: NCI-H226
Malme-3M = system: Malme-3M
Hs-578T = system: Hs-578T
LOX IMVI = system: LOX IMVI
MDA-MB-231 = system: MDA-MB-231
ACHN = system: ACHN
UACC-62 = system: UACC-62
KM12 = system: KM12
RPMI-8226 = system: RPMI-8226
SNB-19 = system: SNB-19
TK-10 = system: TK-10
SN12C = system: SN12C

## Nc1nc(Cl)cc(NCC2(CO)CCC(CCc3ccccc3)C2)n1 (configuration not stated)
MCF7
  GI50: 11.7 µM (inactive)
OVCAR-8
  GI50: 14.6 µM (inactive)
HOP-62
  GI50: 1.05 µM (active)
SF-539
  GI50: 17.9 µM (inactive)
OVCAR-5
  GI50: 14.5 µM (inactive)
A549
  GI50: 12.6 µM (inactive)
T47D
  GI50: 0.877 µM (active)
MOLT-4
  GI50: 2.7 µM (inactive)
HT-29
  GI50: 7.94 µM (inactive)
SK-MEL-28
  GI50: 19.6 µM (inactive)
OVCAR-3
  GI50: 7.45 µM (inactive)
NCI-H522
  GI50: 11.4 µM (inactive)
RXF 393
  GI50: 14.8 µM (inactive)
SK-MEL-5
  GI50: 0.0665 µM (active)
SK-MEL-2
  GI50: 18.5 µM (inactive)
CAKI-1
  GI50: 13.5 µM (inactive)
786-0
  GI50: 15.7 µM (inactive)
HOP-92
  GI50: 15.5 µM (inactive)
HCC 2998
  GI50: 17.5 µM (inactive)
SF-295
  GI50: 0.687 µM (active)
HCT-15
  GI50: 16.3 µM
EKVX
  GI50: 0.771 µM (active)
MDA-N
  GI50: 14.2 µM (inactive)
HCT-116
  GI50: 2.29 µM (inactive)
SK-OV-3
  GI50: 17.5 µM (inactive)
OVCAR-4
  GI50: 11.9 µM (inactive)
U-251
  GI50: 15 µM (inactive)
SW-620
  GI50: 2.02 µM (inactive)
K562
  GI50: 0.962 µM (active)
BT-549
  GI50: 14 µM (inactive)
IGROV-1
  GI50: 17.5 µM (inactive)
A498
  GI50: 12.8 µM (inactive)
MDA-MB-435
  GI50: 14.3 µM (inactive)
COLO 205
  GI50: 12.8 µM (inactive)
UACC-257
  GI50: 6.22 µM (inactive)
UO-31
  GI50: 18 µM (inactive)
NCI/ADR-RES
  GI50: 11.9 µM (inactive)
PC-3
  GI50: 19.3 µM (inactive)
DU-145
  GI50: 14.8 µM (inactive)
M14
  GI50: 13.7 µM (inactive)
HL-60
  GI50: 6.21 µM (inactive)
SF-268
  GI50: 16.6 µM (inactive)
NCI-H460
  GI50: 12 µM (inactive)
SNB-75
  GI50: 20.8 µM (inactive)
NCI-H23
  GI50: 2.88 µM (inactive)
NCI-H226
  GI50: 16.5 µM (inactive)
Malme-3M
  GI50: 16 µM (inactive)
Hs-578T
  GI50: 21.3 µM (inactive)
LOX IMVI
  GI50: 7.89 µM (inactive)
MDA-MB-231
  GI50: 16.6 µM (inactive)
ACHN
  GI50: 13.8 µM (inactive)
UACC-62
  GI50: 13.2 µM (inactive)
KM12
  GI50: 13.9 µM (inactive)
RPMI-8226
  GI50: 2.86 µM (inactive)
SNB-19
  GI50: 15.9 µM (inactive)
TK-10
  GI50: 18 µM (inactive)
SN12C
  GI50: 16 µM (inactive)
